Results on 14 molecules are retold here after patent publication US8367710B2, “Bicyclo-substituted pyrazolon azo derivatives, preparation process and pharmaceutical use thereof” (Jiangsu Hengrui Medicine Co. Ltd., priority 2008, dated 2013).

One data set has as its target T1, human TPO receptor (Homo sapiens, UniProt P40238).
T1 sequence (P40238 26-635): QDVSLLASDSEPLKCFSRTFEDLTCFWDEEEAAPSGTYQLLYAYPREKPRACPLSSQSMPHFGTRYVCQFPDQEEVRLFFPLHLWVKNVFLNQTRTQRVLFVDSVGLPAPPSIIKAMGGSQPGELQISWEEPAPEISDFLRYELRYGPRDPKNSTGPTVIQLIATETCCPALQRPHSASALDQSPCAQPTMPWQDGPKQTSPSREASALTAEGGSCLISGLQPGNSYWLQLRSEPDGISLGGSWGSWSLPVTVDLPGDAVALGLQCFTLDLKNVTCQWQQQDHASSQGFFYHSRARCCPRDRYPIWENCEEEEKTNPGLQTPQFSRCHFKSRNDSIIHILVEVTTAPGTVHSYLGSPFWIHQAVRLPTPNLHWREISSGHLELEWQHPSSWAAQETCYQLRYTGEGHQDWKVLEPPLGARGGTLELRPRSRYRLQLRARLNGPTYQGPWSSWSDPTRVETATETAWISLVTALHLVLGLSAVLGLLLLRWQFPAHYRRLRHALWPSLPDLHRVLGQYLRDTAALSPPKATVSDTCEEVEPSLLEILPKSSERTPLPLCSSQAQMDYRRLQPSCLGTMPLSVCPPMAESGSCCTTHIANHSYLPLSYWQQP
The data set can be described thus: pro-proliferation effect on BAF3-TPOR cell (CCK-8). It is filed as cell-based, mouse. The conditions noted are these: BAF3-TPOR cells, proliferation relative to rhTPO positive control. The protocol: The sequence of primers which contains multi-sites mutation was designed as follows: […]
The E. coli DH5α competent cell was transformed with mutated plasmid, and positive colonies were picked up through ampicillin selection.
(2) BAF3-TPOR stable transfected cell line: the following method was used to construct the BaF3 cell which stably over-expressed functional human TPO receptor. […] The stable transfected cells BAF3-TPOR were selected with G418 (Gibco, US), then incubated with RPMI1640 medium plus 10% FBS (Gibco, US), […] G418, 5 ng/mL, rmIL-3 (Chemicon, US).
(1) Washing cells by centrifugation: a suitable amount of cell suspension was centrifuged at 1000 rpm for 5 minutes, and the supernatant was discarded. 10 mL of cell culture media without containing IL-3 was added. Then the resulting cell suspension was centrifuged at 1000 rpm for 5 minutes, and the supernatant was discarded.
(2) 1 mL of cell culture media without containing IL-3 was added to beat upon them to equality, and the number of a suitable amount of cell suspension was counted after dilution.
(3) According to the result of the cell counting, a cell suspension in a concentration of 100,000 cell/mL was prepared.
(4) 100 μL of cell suspension was transferred to each well of 96-well culture plate, and there were 3 parallel wells, that is, there were a blank control group (B), a negative control group (N), a positive control group of TPO (P) and a test compound group (S).
(5) The test compound was dissolved in DMSO to prepare a 10 mM stock solution, and then the solution was diluted with RPMI 1640 medium into a series of test samples at different concentration: 30 μM, 10 μM, 3 μM, 1 μM, 0.3 μM, 0.1 μM, 0.03 μM, 0.01 μM, 0.003 μM, 0.001 μM.
(6) 10 μL of test compound solution was transferred to each well respectively; 1 μL of rhTPO (10 μg/mL) was added to positive control well.
(7) The plates were incubated in an incubator at 5% CO2 and 37° C. for 24 hours.
(9) OD value was detected at 450 nm by VICTOR3 (Perkin Elmer 1420-120) plate reader.
(1) The proliferation rate was calculated as follows: Rate=[(S−B)/(P−B)]*100%
S: OD value of wells which contains test compound.
B: OD value of blank control wells
P: OD value of positive control wells
(2) The EC50 value was calculated by Origin 7.0 software.

A short description of data set [1]: Pharmacokinetics assay in rats after intragastric administration. The data set is classed as in vivo. Particulars: both sexes, Sprague-Dawley, rat, plasma, po, SD rats, 5 mg/Kg; for Vd/F: read-out: Apparent Distribution Volume Vz/F; for CL/F: read-out: Clearance CL/F (converted); for AUC: read-out: Curve Area AUC; for half-life: read-out: Half-Life t½ (converted); for MRT: read-out: Mean Residence Time MRT; for Cmax: read-out: Plasma Conc. Cmax. How it is done:
Test Example 1: Pharmacokinetics assay of the compounds of the present disclosure
The pharmacokinetics of the compounds of the present disclosure was studied and evaluated in rats.
The test compound was diluted with 1% sodium carboxymethyl cellulose to 0.5 mg/mL (calculated as the free acid form) of suspension before use.
24 healthy adult SD rats, male and female in half, were divided into […]. After an overnight fast, the rats were administered intragastrically at a dose of 5.0 mg/kg (calculated as the free acid form), at a volume of 10 mL/kg.
24 healthy adult SD rats, male and female in half, were administered intragastrically at a dose of 5.0 mg/kg after an overnight fast. Blood samples (0.2 mL) were taken from eye socket at pre administration and at 0.5, 1.0, 2.0, 3.0, 4.0, 5.0, 6.0, 8.0, 11.0, 14.0, 24.0, 36.0 and 48.0 hours post administration, which were stored in heparinized tubes and centrifuged for 10 minutes at 3,500 rpm. The plasma samples were stored at −20° C. until analysis.
50 μL of rat plasma, obtained at various time points after administration, 20 μL of internal standard solution and 20 μL of a solvent mixture of methanol and water (80:20, v/v) were mixed well, and then 150 μL of methanol was added to result in protein precipitation. Then the mixture was mixed for 1 minute using a vortexer and centrifuged for 10 minutes at 13,000 rpm. 20 μL of the supernatant was analyzed by LC/MS/MS.
50 μL of blank plasma was spiked with a series of standard solutions to produce final concentrations of 1.0, 5.0, 25.0, 50.0, 100.0, 250.0, 500.0 ng/mL, followed by addition of 20 μL of internal standard solution, which was treated according to plasma sample pretreatment protocol. A typical calibration curve equation was obtained with plasma concentration as the abscissa and the chromatographic peak area ratio of sample to internal standard as the ordinate, using weighted least squares method (w=1/x^2) for linear regression.
The compartmental model of pharmacokinetics was fitted for the test compounds and the major pharmacokinetic parameters were calculated in which Cmax and tmax were the actually measured values.

`CC1=NN(c2ccc3c(c2)CC3)C(=O)/C1=N\Nc1cccc(-c2ccc(C(=O)O)o2)c1O` [Example 22, 5-{3-[N′-(1-Bicyclo[4.2.0]octa-1(6),2,4-trien-3-yl-3-methyl-5-oxo-1,5-dihydro-pyrazol-4-ylidene)-hydrazino]-2-hydroxy-phenyl}-furan-2-carboxylic acid] came in with an EC50 at human TPO receptor of 0.015 µM.
The same measure, in the same setting: with `CC1=NN(c2ccc3c(c2)CC(C)(C)C3)C(=O)/C1=N\Nc1cccc(-c2ccc(C(=O)O)o2)c1O` [Example 45, 5-(3-{N′-[1-(2,2-Dimethyl-indan-5-yl)-3-methyl-5-oxo-1,5-dihydro-pyrazol-4-ylidene]-hydrazino}-2-hydroxy-phenyl)-furan-2-carboxylic acid] the figure was 0.13 µM.
Still for that read-out and setting: with `CC1=NN(c2ccc3c(c2)C(C)(C)CC3(C)C)C(=O)/C1=N\Nc1cc(C)cc(-c2cccc(C(=O)O)c2)c1O` [Example 20, 2′-Hydroxy-5′-methyl-3′-{N′-[3-methyl-5-oxo-1-(1,1,3,3-tetramethyl-indan-5-yl)-1,5-dihydro-pyrazol-4-ylidene]-hydrazino}-biphenyl-3-carboxylic acid] the figure was 0.089 µM; with `CC1=NN(c2ccc3c(c2)CC3)C(=O)/C1=N\Nc1cccc(-c2cccc(C(=O)O)c2)c1O` [Example 5, 3′-[N′-(1-Bicyclo[4.2.0]octa-1(6),2,4-trien-3-yl-3-methyl-5-oxo-1,5-dihydro-pyrazol-4-ylidene)-hydrazino]-2′-hydroxy-biphenyl-3-carboxylic acid], 0.354 µM; with `CC1=NN(c2ccc3c(c2)CCCC3)C(=O)/C1=N\Nc1cc(F)cc(-c2cccc(C(=O)O)c2)c1O` [Example 4, 5′-Fluoro-2′-hydroxy-3′-{N′-[3-methyl-5-oxo-1-(5,6,7,8-tetrahydro-naphthalen-2-yl)-1,5-dihydro-pyrazol-4-ylidene]-hydrazino}-biphenyl-3-carboxylic acid], 0.283 µM.
The same measure, in the same setting: with `CC1=NN(c2ccc3c(c2)CC3)C(=O)/C1=N\Nc1cccc(-c2ccc(C(=O)O)s2)c1O` [Example 37, 5-{3-[N′-(1-Bicyclo[4.2.0]octa-1(6),2,4-trien-3-yl-3-methyl-5-oxo-1,5-dihydro-pyrazol-4-ylidene)-hydrazino]-2-hydroxy-phenyl}-thiophene-2-carboxylic acid] the figure was 0.09 µM.
At human TPO receptor, `CC1=NN(c2ccc3c(c2)CCC3)C(=O)/C1=N\Nc1cc(C)cc(-c2ccc(C(=O)O)o2)c1O` [Example 46, 5-{2-Hydroxy-3-[N′-(1-indan-5-yl-3-methyl-5-oxo-1,5-dihydro-pyrazol-4-ylidene)-hydrazino]-5-methyl-phenyl}-furan-2-carboxylic acid] gave an EC50 of 0.056 µM.
Same read-out and setting: then `CC1=NN(c2ccc3c(c2)CCC3)C(=O)/C1=N\Nc1cccc(-c2coc(C(=O)O)c2)c1O` [Example 31, 4-{2-Hydroxy-3-[N′-(1-indan-5-yl-3-methyl-5-oxo-1,5-dihydro-pyrazol-4-ylidene)-hydrazino]-phenyl}-furan-2-carboxylic acid], with 0.027 µM.
On to `CC1=NN(c2ccc3c(c2)CCCC3)C(=O)/C1=N\Nc1cccc(-c2ccc(C(=O)O)o2)c1O` [Example 15, 5-(2-Hydroxy-3-{N′-[3-methyl-5-oxo-1-(5,6,7,8-tetrahydro-naphthalen-2-yl)-1,5-dihydro-pyrazol-4-ylidene]-hydrazino}-phenyl)-furan-2-carboxylic acid], for which, in data set [1], the Vd/F was determined as 1.36 ± 0.7 L/kg, the CL/F was 0.28 L/h/kg, the AUC is 23.8 ± 17.3 µg·h/mL and the half-life was 3.47 ± 0.79 h. For the same molecule, in data set [1], the MRT amounted to 4.09 ± 0.99 h and the Cmax stood at 6.63 ± 3.78 µg/mL.
`CC1=NN(c2ccc3c(c2)C(C)(C)CC3)C(=O)/C1=N\Nc1cc(C)cc(-c2cccc(C(=O)O)c2)c1O` [Example 16, 3′-{N′-[1-(3,3-Dimethyl-indan-5-yl)-3-methyl-5-oxo-1,5-dihydro-pyrazol-4-ylidene]-hydrazino}-2′-hydroxy-5′-methyl-biphenyl-3-carboxylic acid] displayed an EC50 at human TPO receptor of 0.16 µM.
`CC1=NN(c2ccc3c(c2)C(C)CC3)C(=O)/C1=N\Nc1cccc(-c2ccc(C(=O)O)o2)c1O` (stereo not drawn) [Example 44, 5-(2-Hydroxy-3-{N′-[3-methyl-1-(3-methyl-indan-5-yl)-5-oxo-1,5-dihydro-pyrazol-4-ylidene]-hydrazino}-phenyl)-furan-2-carboxylic acid] showed an EC50 at human TPO receptor of 0.05 µM.
Same read-out and setting: then `CC1=NN(c2ccc3c(c2)CCCC3)C(=O)/C1=N\Nc1cc(C)cc(-c2cccc(C(=O)O)c2)c1O` [Example 11, 2′-Hydroxy-5′-methyl-3′-{N′-[3-methyl-5-oxo-1-(5,6,7,8-tetrahydro-naphthalen-2-yl)-1,5-dihydro-pyrazol-4-ylidene]-hydrazino}-biphenyl-3-carboxylic acid], with 0.257 µM.
Turning to `CC1=NN(c2ccc3c(c2)CCC3)C(=O)/C1=N\Nc1cccc(-c2cccc(C(=O)O)c2)c1O` [Example 1, 2′-Hydroxy-3′-[N′-(1-indan-5-yl-3-methyl-5-oxo-1,5-dihydro-pyrazol-4-ylidene)-hydrazino]-biphenyl-3-carboxylic acid], in data set [1], the Vd/F is 0.35 ± 0.18 L/kg, the CL/F is 0.049 L/h/kg, the AUC is 132 ± 47 µg·h/mL and the half-life is 5.39 ± 0.94 h. Further, in data set [1], the MRT was found to be 4.96 ± 1.16 h and the Cmax was found to be 29.1 ± 11.4 µg/mL.
Molecule `CC1=NN(c2ccc3c(c2)CC(C)(C)C3)C(=O)/C1=N\Nc1cccc(-c2cccc(C(=O)O)c2)c1O` [Example 56, 3′-{N′-[1-(2,2-Dimethyl-indan-5-yl)-3-methyl-5-oxo-1,5-dihydro-pyrazol-4-ylidene]-hydrazino}-2′-hydroxy-biphenyl-3-carboxylic acid] showed an EC50 at human TPO receptor of 0.06 µM.

By EC50 is commonly meant the midpoint of the concentration-response curve. A higher EC50 goes with weaker potency. The AUC is the area under the concentration-time curve, a measure of exposure. A word on the half-life: it is the time needed for the level to fall by half in the phase considered. As a reminder, the MRT is the average time that molecules of a dose stay in the body. The term Cmax denotes the maximum level reached in the sampled fluid or tissue.
